Experimental findings from ChEMBL document CHEMBL2390830 (Eur J Med Chem, 2013) are described below.

Where a name gives a salt, the structure may show the parent alone.

Assay [1] in a line: Binding affinity to human PCP receptor by radioligand displacement assay. (Displacement assays read how much labelled ligand stays bound in the presence of the test substance.)
The nature of assay [2]: Binding affinity to sodium channel site 2 (unknown origin) by radioligand displacement assay. Details: species or system Homo sapiens.
A short description of assay [3]: Binding affinity to somatostatin receptor (unknown origin) by radioligand displacement assay. The arrangement: species or system Homo sapiens.
Assay [4] addresses T1, 5-hydroxytryptamine receptor 1A (Rattus norvegicus, UniProt P19327).
T1 sequence (P19327 whole entry): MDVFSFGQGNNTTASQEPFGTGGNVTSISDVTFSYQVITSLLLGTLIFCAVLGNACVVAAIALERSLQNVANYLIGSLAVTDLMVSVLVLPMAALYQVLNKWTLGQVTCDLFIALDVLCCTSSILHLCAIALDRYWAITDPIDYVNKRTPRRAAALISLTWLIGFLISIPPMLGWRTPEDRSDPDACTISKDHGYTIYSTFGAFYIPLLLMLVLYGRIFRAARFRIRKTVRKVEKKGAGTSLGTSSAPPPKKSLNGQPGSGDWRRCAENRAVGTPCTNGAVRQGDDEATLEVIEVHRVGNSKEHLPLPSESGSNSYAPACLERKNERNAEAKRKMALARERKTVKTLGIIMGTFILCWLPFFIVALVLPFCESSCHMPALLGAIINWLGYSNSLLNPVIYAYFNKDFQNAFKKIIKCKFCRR
As to the kind of experiment: Displacement of [3H]8-OH-DPAT from 5-HT1A receptor in Wistar rat cerebral hippocampus membrane after 10 mins. The format is tissue-based. To be noted: read-out: Ki(app).

Assay [5] has as its target Voltage-gated L-type calcium channel (Homo sapiens, UniProt Q13936+Q13698+Q01668+O60840). As to the kind of experiment: Binding affinity to L-Ca2+ channel verapamil site (unknown origin) by radioligand displacement assay.
Assay [6] in a line: Binding affinity to P2X receptor (unknown origin) by radioligand displacement assay. Details: species or system Homo sapiens.
The nature of assay [7]: Binding affinity to P2Y receptor (unknown origin) by radioligand displacement assay. The arrangement: species or system Homo sapiens.
The target in assay [8] is T2, Muscarinic acetylcholine receptor M5 (Homo sapiens, UniProt P08912).
T2 sequence (P08912 whole entry): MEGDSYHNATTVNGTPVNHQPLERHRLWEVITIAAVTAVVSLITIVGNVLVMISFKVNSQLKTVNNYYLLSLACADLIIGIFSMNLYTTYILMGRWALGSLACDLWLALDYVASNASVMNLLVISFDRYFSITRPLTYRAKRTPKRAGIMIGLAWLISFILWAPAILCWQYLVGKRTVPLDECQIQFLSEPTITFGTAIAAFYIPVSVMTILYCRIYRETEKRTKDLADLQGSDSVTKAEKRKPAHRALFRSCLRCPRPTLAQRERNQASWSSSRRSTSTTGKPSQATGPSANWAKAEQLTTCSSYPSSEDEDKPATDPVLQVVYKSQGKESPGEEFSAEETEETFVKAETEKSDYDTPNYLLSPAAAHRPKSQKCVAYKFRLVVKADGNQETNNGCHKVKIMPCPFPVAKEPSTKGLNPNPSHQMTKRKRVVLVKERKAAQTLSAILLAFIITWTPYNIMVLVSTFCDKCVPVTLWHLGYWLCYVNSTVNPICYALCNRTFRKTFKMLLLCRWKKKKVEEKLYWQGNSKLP
Briefly: Binding affinity to human muscarinic M5 receptor by radioligand displacement assay.

The target of assay [9] is T3, 5-hydroxytryptamine receptor 2C (Homo sapiens, UniProt P28335).
T3 sequence (P28335 whole entry): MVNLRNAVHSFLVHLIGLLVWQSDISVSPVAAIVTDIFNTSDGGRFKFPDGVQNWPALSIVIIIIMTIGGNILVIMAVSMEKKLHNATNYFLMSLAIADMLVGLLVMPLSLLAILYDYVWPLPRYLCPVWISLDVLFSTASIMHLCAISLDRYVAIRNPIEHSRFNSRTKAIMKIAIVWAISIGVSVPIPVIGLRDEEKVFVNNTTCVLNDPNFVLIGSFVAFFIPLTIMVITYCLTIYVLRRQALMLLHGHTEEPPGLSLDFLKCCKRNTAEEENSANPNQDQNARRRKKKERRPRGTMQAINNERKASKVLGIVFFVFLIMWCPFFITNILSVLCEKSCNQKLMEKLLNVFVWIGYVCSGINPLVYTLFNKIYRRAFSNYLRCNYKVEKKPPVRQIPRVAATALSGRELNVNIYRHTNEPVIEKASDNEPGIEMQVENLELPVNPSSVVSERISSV
Briefly: Binding affinity to human 5-HT2C receptor by radioligand displacement assay.

The nature of assay [10]: Binding affinity to human PACAP receptor by radioligand displacement assay.
A short description of assay [11]: Binding affinity to GABA-gated chloride channel (unknown origin) by radioligand displacement assay. Details: species or system Homo sapiens.
Assay [12] is described as follows: Binding affinity to peripheral BZD receptor (unknown origin) by radioligand displacement assay. Details: species or system Homo sapiens.

In [1], `C[C@]12N[C@H](Cc3ccccc31)c1ccccc12` [DIZOCILPINE MALEATE] came in with an IC50 of 4.3 nM and a Ki of 2.4 nM.
For the molecule `COc1ccc(C(=O)O[C@H]2CC[C@@]3(C)[C@@H]4CC[C@H]5[C@]6(O)C[C@H](O)[C@@]7(O)[C@@H](CN8C[C@@H](C)CC[C@H]8[C@@]7(C)O)[C@]6(O)C[C@@]53O[C@]24O)cc1OC` [VERATRIDINE], in assay [2], the IC50 was 5200 nM and the Ki worked out at 4700 nM.
`C[C@H](N)C(=O)NCC(=O)N[C@H]1CSSC[C@@H](C(=O)O)NC(=O)[C@H](CO)NC(=O)[C@H]([C@@H](C)O)NC(=O)[C@H](Cc2ccccc2)NC(=O)[C@H]([C@@H](C)O)NC(=O)[C@H](CCCCN)NC(=O)[C@H](Cc2c[nH]c3ccccc23)NC(=O)[C@H](Cc2ccccc2)NC(=O)[C@H](Cc2ccccc2)NC(=O)[C@H](CC(N)=O)NC(=O)[C@H](CCCCN)NC1=O` [SOMATOSTATIN]: in [3], the IC50 came out at 0.33 nM and the Ki was found to be 0.2 nM.
In the case of `O=C1c2c(c(Cl)nc3ccccc23)CN1CCCCN1CCN(c2cccc(Cl)c2Cl)CC1`, the Ki in assay [4] is 31 nM.
Still for that read-out and setting: with `COc1ccccc1N1CCN(CCCCN2Cc3ccc4ccccc4c3C2=O)CC1` the figure was 13 nM; with `O=C1c2cc3ccccc3nc2CN1CCCCCN1CCN(c2cccc(Cl)c2Cl)CC1`, 58 nM.
Turning to `COc1ccc(CCN(C)CCCC(C#N)(c2cc(OC)c(OC)c(OC)c2)C(C)C)cc1OC` (centres undefined) [GALLOPAMIL], in assay [5], the IC50 stood at 1.1 ×10⁻⁸ M and the Ki came to 5.4 ×10⁻⁹ M.
On to `COc1ccccc1N1CCN(CCCN2Cc3nc4ccccc4cc3C2=O)CC1`, for which, in assay [4], the Ki is 104 nM.
`Nc1ncnc2c1ncn2[C@@H]1O[C@H](COP(=O)(O)CP(=O)(O)OP(=O)(O)O)[C@@H](O)[C@H]1O` [DIPHOSPHOMETHYLPHOSPHONIC ACID ADENOSYL ESTER]: in assay [6], the IC50 was 2.1 nM and the Ki was determined as 0.97 nM.
In assay [7], `Nc1ncnc2c1ncn2[C@H]1C[C@H](O)[C@@H](COP(O)(=S)OP(=O)(O)OP(=O)(O)O)O1` (some centres undefined) had an IC50 of 45 nM and a Ki of 23 nM.
With `COc1ccccc1N1CCN(CCCCN2Cc3c(Cl)nc4ccccc4c3C2=O)CC1`, the Ki in assay [4] is 17 nM.
For `C[N+]1(C)CCC(OC(=O)C(c2ccccc2)c2ccccc2)CC1` [4-DAMP], in [8], the IC50 was 0.45 nM and the Ki turned out to be 0.22 nM.
With `COc1ccccc1N1CCN(CCCN2Cc3ccc4ccccc4c3C2=O)CC1`, in assay [4], the Ki stood at 46 nM.
As for `O=C1c2c(ccc3ccccc23)CN1CCCCN1CCN(c2cccc(Cl)c2Cl)CC1`, the Ki in assay [4] was determined as 31 nM.
With `O=C1c2cc3ccccc3nc2CN1CCCCN1CCN(c2cccc(Cl)c2Cl)CC1`, in assay [4], the Ki was 30 nM.
For the molecule `COc1ccccc1N1CCN(CCCCN2Cc3nc4ccccc4cc3C2=O)CC1`, the Ki in assay [4] stood at 15 nM.
As to `O=C1c2c(ccc3ccccc23)CN1CCCCCN1CCN(c2cccc(Cl)c2Cl)CC1`, the Ki in [4] came to 490 nM.
Consider `COc1cc(OC)c(C(=O)CCCCN2CCC3(CC2)NC(=O)NC3=O)cc1NS(=O)(=O)c1ccc(C(F)(F)F)cc1` [RS-102,221], for which, in [9], the IC50 was determined as 2.7 nM and the Ki worked out at 0.91 nM.
For the molecule `O=C1c2c(c(Cl)nc3ccccc23)CN1CCCCCN1CCN(c2cccc(Cl)c2Cl)CC1`, the Ki in assay [4] amounted to 878 nM.
`CC[C@H](C)[C@H](NC(=O)CNC(=O)[C@H](CC(=O)O)NC(=O)[C@H](CO)NC(=O)[C@@H](N)Cc1cnc[nH]1)C(=O)N[C@@H](Cc1ccccc1)C(=O)N[C@H](C(=O)N[C@@H](CC(=O)O)C(=O)N[C@@H](CO)C(=O)N[C@@H](Cc1ccc(O)cc1)C(=O)N[C@@H](CO)C(=O)N[C@@H](CCCNC(=N)N)C(=O)N[C@@H](Cc1ccc(O)cc1)C(=O)N[C@@H](CCCNC(=N)N)C(=O)N[C@@H](CCCCN)C(=O)N[C@@H](CCC(N)=O)C(=O)N[C@@H](CCSC)C(=O)N[C@@H](C)C(=O)N[C@H](C(=O)N[C@@H](CCCCN)C(=O)N[C@@H](CCCCN)C(=O)N[C@@H](Cc1ccc(O)cc1)C(=O)N[C@@H](CC(C)C)C(=O)N[C@@H](C)C(=O)N[C@@H](C)C(=O)N[C@H](C(=O)N[C@@H](CC(C)C)C(=O)NCC(=O)N[C@@H](CCCCN)C(=O)N[C@@H](CCCNC(=N)N)C(=O)N[C@@H](Cc1ccc(O)cc1)C(=O)N[C@@H](CCCCN)C(=O)N[C@@H](CCC(N)=O)C(=O)N[C@@H](CCCNC(=N)N)C(=O)N[C@H](C(=O)N[C@@H](CCCCN)C(=O)N[C@@H](CC(N)=O)C(=O)N[C@@H](CCCCN)C(N)=O)C(C)C)C(C)C)C(C)C)[C@@H](C)O`: in [10], the IC50 was 0.057 nM and the Ki worked out at 0.049 nM.
As to `C=C(C)[C@@H]1[C@H]2OC(=O)[C@@H]1[C@]1(O)C[C@H]3O[C@]34C(=O)O[C@H]2[C@]14C` [PICROTOXININ], in assay [11], the IC50 was 120 nM and the Ki is 96 nM.
On to `COc1ccccc1N1CCN(CCCCCN2Cc3nc4ccccc4cc3C2=O)CC1`, for which, in [4], the Ki was 20 nM.
`CCC(C)N(C)C(=O)c1cc2ccccc2c(-c2ccccc2Cl)n1` (centres undefined) [PK-11195]: in assay [12], the IC50 is 0.99 nM and the Ki is 0.89 nM.
